# Test results reported in patent US20240208997A1, “CYCLIC BENZIMIDAZOLE DERIVATIVES AS CGAS INHIBITORS” (Boehringer Ingelheim International GmbH, priority 2022, published 2024).
# Biological target: cGAS (Homo sapiens, UniProt Q8N884)
# Experiment: Human cGAS enzyme assay (hcGAS IC50, in vitro), cGAMP formation by RapidFire MS
# Format: biochemical
# Design: HumancGAS (amino acid 1-522) with an N-terminal 6×-His-tag and SUMO-tag; 6xHis (N); SUMO (N); made in house; host or cells: E. coli BL21(DE3) pLysS
# Conditions: Table 1; 45 bp dsDNA-activated enzyme
# Experimental: 6.1 Method: Human cGAS Enzyme Assay (hcGAS IC50 (In Vitro))
# Human cGAS enzyme was incubated in the presence of a 45 base pair double stranded DNA to activate the enzyme and GTP and ATP as substrates. Compound activity was determined by measuring the effect of compounds on the formation of the product of the enzyme reaction, cGAMP, which is measured by a mass spectrometry method.
# HumancGAS (amino acid 1-522) with an N-terminal 6×-His-tag and SUMO-tag was expressed in E. coli BL21(DE3) pLysS (Novagen) cells for 16 h at 18° C. Cells were lysed in buffer containing 25 mM Tris (pH 8), 300 mM NaCl, 10 mM imidazole, 10% glycerol, protease inhibitor cocktail (cOmplete™, EDTA-free, Roche) and DNase (5 μg/mL). […] Purified protein was concentrated to 1.7 mg/mL and stored at −80° C.
# Compounds were delivered in 10 mM DMSO solution, serially diluted and transferred to the 384 well assay plate (Greiner #781201) using an Echo acoustic dispenser. Typically, 8 concentrations were used with the highest concentration at 10 μM in the final assay volume followed by ^˜1:5 dilution steps. DMSO concentration was set to 1% in the final assay volume. The 384 well assay plate contained 22 test compounds (column 1-22), and DMSO in column 23 and 24.
# After the compound transfer, 15 μL of the enzyme-DNA-working solution (12 nM cGAS, 0.32 μM 45base pair DNA in assay buffer, 10 mM Tris pH 7.5/10 mM KCl/5 mM MgCl2/1 mM DTT) were added to each well from column 1-23 via a MultiDrop Combi dispenser. In column 24, 15 μl of assay buffer without enzyme/DNA were added as a low control.
# The plates were then pre-incubated for 60 min at room temperature.
# Following that, 10 μL of GTP (ThermoFisher #R0461)-ATP (Promega #V915B) mix in assay buffer were added to the assay plate (columns 1-24, 30 μM final concentration each) using a Multidrop Combi.
# The plates were incubated again for 90 min at room temperature.
# Following the incubation, the reaction was stopped by 80 μL of 0,1% formic acid in assay buffer containing 5 nM cyclic-di-GMP (Sigma #SML1228) used as internal standard for the mass spectrometry. The total volume/well was 105 μL.
# The plates were centrifuged at 4000 rpm, 4° C., for 5 min.
# The RapidFire autosampler was coupled to a binary pump (Agilent 1290) and a Triple Quad 6500 (ABSciex, Toronto, Canada). […] Aspiration time: 250 ms; Load time: 3000 ms; Elute time: 3000 ms; Wash volume: 500 μL.
# The MS was operated in positive ion mode with HESI ion source, with a source temperature of 550 C, curtain gas=35, gas 1=65, and gas 2=80. Unit mass resolution in SRM mode. The following transitions and MS parameters (DP: declustering potential and CE: collision energy) for cGAMP and DicGMP were determined:
# Internal standard: cyclic-di-GMP at 690.1/540, DP=130, CE=30.
# The formation of cGAMP was monitored and evaluated as ratio to cyclic-di-GMP.
# Data Evaluation and Calculation:
# For data evaluation and calculation, the measurement of the low control was set as 0% control and the measurement of the high control was set as 100% control. The IC50 values were calculated using the standard 4 parameter logistic regression formula. Calculation: [y=(a−d)/(1+(x/c)^b)+d], a=low value, d=high value; x=conc M; c=1C50 M; b=slope
# Sequence of cGAS (Q8N884 whole entry): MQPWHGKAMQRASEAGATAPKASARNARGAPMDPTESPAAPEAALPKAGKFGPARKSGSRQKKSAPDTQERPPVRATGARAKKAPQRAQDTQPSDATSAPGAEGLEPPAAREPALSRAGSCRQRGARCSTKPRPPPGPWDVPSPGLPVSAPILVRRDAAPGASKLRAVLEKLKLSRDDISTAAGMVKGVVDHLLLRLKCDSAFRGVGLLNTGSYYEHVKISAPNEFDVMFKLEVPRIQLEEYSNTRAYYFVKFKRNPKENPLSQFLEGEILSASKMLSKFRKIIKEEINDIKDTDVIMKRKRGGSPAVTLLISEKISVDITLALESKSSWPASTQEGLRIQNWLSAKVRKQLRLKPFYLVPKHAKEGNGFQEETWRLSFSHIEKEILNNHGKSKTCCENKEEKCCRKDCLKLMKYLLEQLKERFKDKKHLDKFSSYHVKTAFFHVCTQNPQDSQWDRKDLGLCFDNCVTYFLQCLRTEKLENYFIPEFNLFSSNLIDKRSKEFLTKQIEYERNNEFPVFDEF
row,SMILES,IC50
1,C[C@@H]1CCCCC(=O)N2CCC(CC2)n2c(nc3ccccc32)O[C@H]2C[C@@H](C(=O)O)N(C2)c2nc1nc1c2oc2ccccc21 [Example 1.26],3.4 nM
2,O=C(O)[C@@H]1C[C@H]2CN1c1nc(nc3c1oc1ccccc13)CCOCCCC(=O)N1CCC(CC1)n1c(nc3cc(F)ccc31)O2 [Example 1.03],5.6 nM
3,"C[C@H]1CN2CC[C@@H]1n1c(nc3cccc(Cl)c31)O[C@H]1C[C@@H](C(=O)O)N(C1)c1nc(nc3c1oc1ccccc13)CC(=O)NCCCC2=O (racemic) [Example 2.01, (12S,14S)-4-chloro-37-methyl-29,34-dioxo-11,18-dioxa-2,9,15,26,30,35,40-heptaazaoctacyclo[33.2.2.1^12,15.1^16,27.0^2,10.0^3,8.0^17,25.0^19,24]hentetraconta-3,5,7,9,16(40),17(25),19(24),20,22,26-decaene-14-carboxylic acid]",6 nM
4,C[C@H]1CN2CC[C@@H]1n1c(nc3ccccc31)O[C@H]1C[C@@H](C(=O)O)N(C1)c1nc(nc3c1oc1ccccc13)CCCCCOC2=O [Example 10.02],34 nM
5,C[C@H]1CN2CC[C@@H]1n1c(nc3cc(Cl)ccc31)O[C@H]1C[C@@H](C(=O)O)N(C1)c1nc(nc3c1oc1ccccc13)C(F)(F)CCCOCC2=O [Example 1.21],3.3 nM
6,C[C@@H]1CN2CC[C@H]1n1c(nc3ccccc31)O[C@H]1C[C@@H](C(=O)O)N(C1)c1nc(nc3c1oc1ccccc13)CCCCCOC2=O [Example 10.01],54 nM
7,C[C@H]1CN2CC[C@@H]1n1c(nc3ccc(Cl)cc31)O[C@H]1C[C@@H](C(=O)O)N(C1)c1nc(nc3c1oc1ccccc13)COCCCCC2=O [Example 1.10],5 nM
8,O=C(O)[C@@H]1C[C@H]2CN1c1nc(nc3c1oc1ccccc13)COCCCCCC(=O)N1CCC(CC1)n1c(nc3cccc(F)c31)O2 [Example 5.01],5.5 nM
9,C[C@H]1CN2CC[C@@H]1n1c(nc3ccccc31)O[C@H]1C[C@@H](C(=O)O)N(C1)c1nc(nc3c1oc1ccccc13)CCOCCOC2=O (mixture of isomers) [Example 12.01],8.9 nM
10,C[C@H]1CN2CC[C@@H]1n1c(nc3ccccc31)O[C@H]1C[C@@H](C(=O)O)N(C1)c1nc(nc3c1oc1ccccc13)C(F)(F)CCCCC(F)(F)C2=O [Example 1.17],7.2 nM
11,C[C@@H]1CN2CC[C@H]1n1c(nc3cc(Cl)ccc31)O[C@H]1C[C@@H](C(=O)O)N(C1)c1nc(nc3c1oc1ccccc13)CCOCCCC2=O [Example 1.01],14 nM
12,C[C@H]1CN2CC[C@@H]1n1c(nc3ccccc31)O[C@H]1C[C@@H](C(=O)O)N(C1)c1nc(nc3c1oc1cc(F)ccc13)C(F)(F)CCCCCC2=O [Example 1.14],4.1 nM
13,C[C@H]1CCCCC(=O)N2CCC(CC2)n2c(nc3ccccc32)O[C@H]2C[C@@H](C(=O)O)N(C2)c2nc1nc1c2oc2ccccc21 [Example 1.25],5.5 nM
14,O=C(O)[C@@H]1C[C@H]2CN1c1nc(nc3c1oc1ccccc13)COCCCC(F)(F)C(=O)N1CCC(CC1)n1c(nc3ccccc31)O2 [Example 8.01],5.6 nM
15,C[C@H]1CN2CC[C@@H]1n1c(nc3cc(Cl)ccc31)O[C@H]1C[C@@H](C(=O)O)N(C1)c1nc(nc3c1oc1cc(F)ccc13)CCCCOCC2=O [Example 1.09],3.9 nM
16,C[C@H]1CN2CC[C@@H]1n1c(nc3cc(Cl)ccc31)O[C@H]1C[C@@H](C(=O)O)N(C1)c1nc(nc3c1oc1ccccc13)C(F)(F)CCCCCC2=O [Example 1.12],5.2 nM
17,C[C@H]1CN2CC[C@@H]1n1c(nc3ccc(Cl)cc31)O[C@H]1C[C@@H](C(=O)O)N(C1)c1nc(nc3c1oc1ccccc13)CCOCCCC2=O [Example 1.06],3.2 nM
18,C[C@H]1CN2CC[C@@H]1n1c(nc3cc(F)ccc31)O[C@H]1C[C@@H](C(=O)O)N(C1)c1nc(nc3c1oc1cc(F)ccc13)C(F)(F)CCCCCC2=O [Example 1.15],3.5 nM
19,Cc1cccc2c1nc1n2[C@H]2CCN(C[C@@H]2C)C(=O)CCCCCC(F)(F)c2nc(c3oc4ccccc4c3n2)N2C[C@H](C[C@H]2C(=O)O)O1 [Example 1.28],11 nM

row,SMILES,IC50
1,O=C(O)[C@@H]1C[C@H]2CN1c1nc(nc3c1oc1ccccc13)OCCCCOC(=O)N1CCC(CC1)n1c(nc3ccccc31)O2 [Example 11.01],10 nM
2,C[C@H]1CN2CC[C@@H]1n1c(nc3ccccc31)O[C@H]1C[C@@H](C(=O)O)N(C1)c1nc(nc3c1oc1cc(Cl)ccc13)CCOCCCC2=O [Example 1.07],3.8 nM
3,C[C@H]1CN2CC[C@@H]1n1c(nc3cc(Cl)ccc31)O[C@H]1C[C@@H](C(=O)O)N(C1)c1nc(nc3c1oc1cc(Cl)ccc13)CCOCCCC2=O [Example 1.08],4.5 nM
4,O=C(O)[C@@H]1C[C@H]2CN1c1nc(nc3c1oc1ccccc13)CCCOCC(=O)N1CCC(CC1)n1c(nc3ccccc31)O2 [Example 9.01],7.5 nM
5,C[C@H]1CN2CC[C@@H]1n1c(nc3ccc(Cl)cc31)O[C@H]1C[C@@H](C(=O)O)N(C1)c1nc(nc3c1oc1ccccc13)C(F)(F)CCCCCC2=O [Example 1.13],6.1 nM
6,C[C@H]1CN2CC[C@@H]1n1c(nc3cc(Cl)ccc31)O[C@H]1C[C@@H](C(=O)O)N(C1)c1nc(nc3c1oc1ccccc13)COCCOCC2=O [Example 1.11],1.9 nM
7,C[C@H]1CN2CC[C@@H]1n1c(nc3cc(Cl)ccc31)O[C@H]1C[C@@H](C(=O)O)N(C1)c1nc(nc3c1oc1ccccc13)C(F)(F)OCCCCC2=O [Example 6.01],3.5 nM
8,C[C@H]1CN2CC[C@@H]1n1c(nc3ccccc31)O[C@H]1C[C@@H](C(=O)O)N(C1)c1nc(nc3c1oc1ccccc13)CCOCCCC2=O [Example 1.05],1.8 nM
9,C[C@H]1CN2CC[C@@H]1n1c(nc3cc(F)ccc31)O[C@H]1C[C@@H](C(=O)O)N(C1)c1nc(nc3c1oc1ccccc13)C(F)(F)CCCCC(F)(F)C2=O [Example 1.18],3.9 nM
10,C[C@H]1CN2CC[C@@H]1n1c(nc3ccccc31)O[C@H]1C[C@@H](C(=O)O)N(C1)c1nc(nc3c1oc1ccccc13)CCCCCC2=O [Example 1.19],3.8 nM
11,C[C@H]1CN2CC[C@@H]1n1c(nc3ccccc31)O[C@H]1C[C@@H](C(=O)O)N(C1)c1nc(nc3c1oc1ccccc13)CCCCCCC2=O (racemic) [Example 1.24],18 nM
12,CC1CCc2nc(c3oc4ccccc4c3n2)N2C[C@H](C[C@H]2C(=O)O)Oc2nc3cc(Cl)ccc3n2[C@H]2CCN(C[C@@H]2C)C(=O)CCO1 (stereo partly shown) [Example 1.20],4.9 nM
13,C[C@H]1CN2CC[C@@H]1n1c(nc3ccccc31)O[C@H]1C[C@@H](C(=O)O)N(C1)c1nc(nc3c1oc1ccccc13)C(F)(F)COCCCCC2=O [Example 3.01],2.1 nM
14,C[C@@H]1CC(=O)N2CCC(CC2)n2c(nc3ccccc32)O[C@H]2C[C@@H](C(=O)O)N(C2)c2nc(nc3c2oc2ccccc23)CCCO1 [Example 7.01],8.8 nM
15,C[C@H]1CN2CC[C@@H]1n1c(nc3ccccc31)O[C@H]1C[C@@H](C(=O)O)N(C1)c1nc(nc3c1oc1cc(Cl)ccc13)C(F)(F)CCCCCC2=O [Example 1.16],3.3 nM
16,C[C@H]1CN2CC[C@@H]1n1c(nc3ccccc31)O[C@H]1C[C@@H](C(=O)O)N(C1)c1nc(nc3c1oc1ccccc13)C(F)(F)COCCCC2=O [Example 4.01],1.7 nM
17,C[C@H]1CN2CC[C@@H]1n1c(nc3ccccc31)O[C@H]1C[C@@H](C(=O)O)N(C1)c1nc(nc3c1oc1ccccc13)CCCC(C)(C)CCC2=O [Example 1.23],41 nM
18,Cc1cccc2c1nc1n2[C@@H]2CCN(C[C@H]2C)C(=O)CCCCCC(F)(F)c2nc(c3oc4ccccc4c3n2)N2C[C@H](C[C@H]2C(=O)O)O1 [Example 1.27],100 nM
